Measurements reported in PMC10891265 (2024).

Test system: ATP aptamer (Apt-POSS) (DNA, aptamer) CCACCACGGTGGTGGTGGTTGTGGTGC
Assay: UV absorption at 260 nm after centrifugation, Langmuir fit
Details: PBS, 30 min

binding (control nucleotide, captured less than ATP, ATP series 1 μM to 2 mM)	K (0.1 mg particle/mL, aptamer on nanoparticles, apparent)	Compound
weak		Nc1ccn([C@@H]2O[C@H](COP(=O)(O)OP(=O)(O)OP(=O)(O)O)[C@@H](O)[C@H]2O)c(=O)n1
	46.5 ± 18.5 µM	Nc1ncnc2c1ncn2[C@@H]1O[C@H](COP(=O)(O)OP(=O)(O)OP(=O)(O)O)[C@@H](O)[C@H]1O
